This note sets out measurements from US20250000834A1, “COMPOSITIONS AND METHODS FOR TARGETING GPCR FOR THE PREVENTION AND TREATMENT OF PAIN” (Duke University, priority 2021, published 2025).

In test [1] the target is T1, hGPR37L1 (Homo sapiens, UniProt O60883).
T1 sequence (O60883 26-481): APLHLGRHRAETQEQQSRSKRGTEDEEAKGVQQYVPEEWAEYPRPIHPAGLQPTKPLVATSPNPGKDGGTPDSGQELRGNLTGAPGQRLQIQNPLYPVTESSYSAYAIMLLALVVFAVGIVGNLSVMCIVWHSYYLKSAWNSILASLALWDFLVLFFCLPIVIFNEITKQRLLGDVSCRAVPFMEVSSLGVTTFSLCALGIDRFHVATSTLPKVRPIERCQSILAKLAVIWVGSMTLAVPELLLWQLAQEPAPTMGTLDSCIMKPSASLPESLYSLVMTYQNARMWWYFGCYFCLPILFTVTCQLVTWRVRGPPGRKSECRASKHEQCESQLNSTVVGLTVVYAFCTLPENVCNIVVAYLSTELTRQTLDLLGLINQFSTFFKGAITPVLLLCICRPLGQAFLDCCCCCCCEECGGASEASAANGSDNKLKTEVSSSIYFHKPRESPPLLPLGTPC
Put plainly: Lipid overlay assay with lysates of hGPR37L1-transfected HEK293 cells. Details: expressed in transfected cells; host or cells: HEK293 Flp-In cells. Format: binding. The protocol:
Lipids overlay assay: Lipids membrane coating and protein overlay assay were performed as previously described (S. Dowler, et al., Protein lipid overlay assay. Sci STKE 2002, p 16 (2002)). […] Compound-coated membranes were dried and blocked with 1% BSA. The coated membranes were incubated with lysates obtained from hGPR37L1-transfected HEK293 cells or mouse DRG lysate from WT or Gpr37l1 KO mice for 2 hours, followed by detection using an anti-GRP37L1 antibody (Bioss (Woburn, MA), Rabbit, 1:1000, #bs-15390R) or anti-flag antibody (Cell Signaling Technology (Danvers, MA), Rabbit, 1:1000, #14793). Blots were further incubated with an HRP-conjugated secondary anti-rabbit antibody (Jackson ImmunoResearch Laboratories (West Grove, PA), raised in donkey, 1:5000), developed in ECL solution (Pierce Biotechnology, Waltham, MA), and the signal was visualized from ChemiDoc XRS (Bio-Rad, Hercules, CA). The signal Intensity was quantified by Image J software (NIH).
A lipid overlay assay was conducted to reveal any possible binding of these lipid mediators to GPR37L1. hGPR37L1 was FLAG-tagged and expressed in HEK293 cells after hGPR37L1 cDNA transfection; the expressed protein detectable by anti-FLAG antibody (schematic not shown; see U.S. Prov. No. 63/270,198, FIG. 3A).

The target in test [2] is T1, hGPR37L1. Put plainly: Beta-arrestin assay (PathHunter hGPR37L1 CHO-K1). The conditions noted are these: hGPR37L1 ChoK1 cells. Type of test: cell-based. The protocol:
Beta-arrestin assay: To screen for GPR37L1 ligands, the PathHunter® eXpress GPR37L1 CHO-K1 kit was purchased from Eurofins Discoveryone™ (DiscoverX Solutions for Drug Discovery, Fremont, CA; Cat #93-0378E2ACP1M). CHO-K1 cells express human GPR37L1 and were grown in 96-well plates for 48 hours. Lipid compounds were incubated with the ChoK1 cells for 1 hour at 37° C., and GPR37L1 activation was determined by measuring chemiluminescence using the beta-arrestin 2 (β-arrestin) detection kit (DiscoverX Solutions for Drug Discovery, Fremont, CA). The luminescent activity was measured using an Infinite F200 Pro Illuminometer (Tecan Trading AG, Switzerland).
Eight different concentrations of compounds ranging from 0.1 nM to 100 nM were tested.

Test [3] concerns PTX-induced mechanical allodynia in mice. In words: Paclitaxel (PTX)-induced mechanical allodynia, von Frey paw withdrawal threshold. Format: in vivo, mouse. To be noted: intrathecal 100 ng. The protocol: Pain models and drug injection: Animal model of chemotherapy-induced peripheral neuropathy (CIPN) was induced by paclitaxel (Sigma-Aldrich (St. Louis, MO), T7191, diluted with sterile saline). A single injection of paclitaxel ([…]) was given by intraperitoneal injection. A single injection of paclitaxel may induce mechanical allodynia for 4-6 weeks (X. Luo et al., Macrophage Toll-like Receptor 9 Contributes to Chemotherapy-Induced Neuropathic Pain in Male Mice. J Neurosci 39, 6848-6864 (2019)). Animal model of […] neuropathy was induced by streptozotocin (STZ, Sigma-Aldrich (St. Louis, MO), S0130, diluted with sterile saline). A single injection of STZ (75 mg/kg) was given as previously described (N. C. Brigham et al., Controlled release of etoricoxib from poly(ester urea) films for post-operative pain management. J Control Release 329, 316-327 (2021)). For intrathecal (i.t.) injection of MaR1, a spinal cord puncture was made by a Hamilton micro-syringe (Hamilton, Reno, NV) with a 30-gauge needle between the L5 and L6 levels to deliver reagents (5 μl) to the cerebral spinal fluid (J. L. Hylden, G. L. Wilcox, Intrathecal morphine in mice: a new technique. Eur. J Pharmacol. 67, 313-316 (1980)).
Nociceptive behavior tests: Gpr37l1^+/+, Gpr37l1^+/−, or Gpr37l1^−/− mice were habituated to the testing environment for at least two days before the baseline testing. All the animal behaviors were tested blindly. Thermal and mechanical sensitivity was tested before and after the injection of paclitaxel (PTX, 6 mg/kg, IP) and streptozotocin (STZ, 75 mg/kg, IP). MaR1 was intrathecally injected 3 days after the STZ and PTX injection. […] The 50% paw withdrawal threshold was measured by Dixon's up-down method (W. J. Dixon, Efficient analysis of experimental observations. Annu Rev Pharmacol Toxicol 20, 441-462 (1980)). Thermal sensitivity was measured using a Hargreaves radiant heat apparatus (IITC Life Science, Woodland Hills, CA) (K. Hargreaves, et al., A new and sensitive method for measuring thermal nociception in cutaneous hyperalgesia. Pain 32, 77-88 (1988)). […]

Turning to `CC/C=C\C/C=C\C[C@H](O)\C=C/C=C/C=C/[C@H](O)C/C=C\CCC(=O)O` [MaR1, Maresin 1], the “binding signal in lipid overlay assay” value at hGPR37L1 [1] (cell lysate from control mock transfection) was “no positive signal”; at hGPR37L1 [1] (lysate of hGPR37L1 (FLAG) transfected HEK293 cells, anti-FLAG detection), “specific binding signal”. The “potency relative to TX14 in β-arrestin 2 assay” value at hGPR37L1 [2] was 10 times. This molecule also showed a β-arrestin signaling on hGPR37L1 [2] (0.1 nM to 100 nM, n=6) of 3.64 fold increase. Besides, the EC50 at hGPR37L1 [2] (n=6, read-out: EC50 of β-arrestin response) is 0.97 nM. Also, the “effect on PTX-induced mechanical allodynia” value was “reversed PTX-induced mechanical allodynia in all the mice” in test [3] (Gpr37l1+/+ WT mice, 3 days after PTX); “significantly reversed the mechanical allodynia in a majority” in test [3] (Gpr37l1+/− mice); “no significant effects” in test [3] (Gpr37l1−/− mice).

In general, EC50 refers to the concentration giving half of the maximal effect.
